In brackets after ≈: the same amount, converted by molar mass. Where two headings read alike, the source gives them in different places. *1 amine or outer side, *2 acyl side, *3 side chain or, on linkers, in order; H or OH if unused. Where a SMILES comes first, the peptide text is derived from it. [ ]: non-standard residue; d: D form. The star is where a group is joined. ξ: configuration not given here. hPhe = N[C@@H](CCc1ccccc1)C(=O)O; Morpholide = C1CN(*)CCO1; ξF = NC(Cc1ccccc1)C(=O)O; CO = O=C([*:1])[*:2]; CH2F = FC*
Experiments:
[1] = biological target: T1, Cathepsin B, purified from human liver (Homo sapiens, UniProt P07858); assay: In vitro evaluation of inhibitors with purified cathepsin B; type: biochemical
T1 construct: Cathepsin B, purified from human liver; purchased Enzyme Systems Products (Dublin, Calif.); host or cells: human liver (tissue-purified)
Protocol: Enzyme: Cathepsin B, purified from human liver, is from Enzyme Systems Products (Dublin, Calif.). The activity is 50 mU per ml at 30° C., in 52 mM sodium phosphate, pH 6.2, 31 mM DTT, 2.1 mM EDTA, with 0.2 mM Z—Arg—Arg-7-amino-4-trifluoromethyl-coumarin as a substrate. Specific activity is 8330 mU per mg protein. (1 mU=1 nmol per min.)
Substrate Boc—Leu—Arg—Arg-7-amino-4-trifluoromethyl-coumarin-2HBr is from Enzyme Systems Products (Dublin, Calif.) and is known to be a specific substrate for cathepsin B. A 20 mM solution is made in DMF and stored at […].
Candidate inhibitors are dissolved in DMF and diluted to 20 mM and stored at […]. Dilutions are made in assay buffer.
The percent inhibition and the inhibitor concentration at which the enzyme is 50% inhibited (IC50) are determined as follows. Five μl of assay buffer (50 mM potassium phosphate pH 6.2, 2 mM EDTA, 5 mM DTT) on ice for 30 min. The inhibition is initiated by the addition of […] inhibitor each to the 480 μl aliquots. The 485 μl aliquot with enzyme is used as a control and thus receives no inhibitor. The enzyme/inhibitor mixtures are incubated 10 min. on ice and assayed for cathepsin B activity as follows:
Cathepsin B assay: To 490 μl of pre-incubated inhibitor/enzyme mixtures in assay buffer in 0.5 ml cuvette at 37° is added 10 μl of the substrate. Final inhibitor concentrations become 2000 nM, 200 nM, and 20 nM for the 200 μM, 20 μM and 2 μM stock concentrations, respectively. Activity is followed by release of free AFC over 5 min. The change in fluorescence is (fluorescence units at t=6)−(fluorescence units at t=1) with a Perkin-Elmer LS-5B spectrofluorometer (ex=400 nm, em=505 nm). The percent inhibition is determined by comparing the change in fluorescence units of the three sample concentrations of inhibited enzyme to the change in fluorescence units of the control enzyme. The percent inhibition is calculated as:
100−(fl. units of sample/fl. units of control×100).
The IC50 is ascertained by plotting percent inhibition vs. inhibitor concentration on the log scale. The IC50 is the concentration of the inhibitor (nM) at which the enzyme is inhibited by 50%.

Pneumocystis carinii = assay: In vitro inhibition of Pneumocystis carinii in culture with human embryonic lung fibroblast monolayers; type: cell-based
Protocol: The percent of inhibition is calculated as 100−(the number of P. carinii trophozoites in a treated cell culture/number of trophosites of the control)×100.
Methods. The drugs dissolved in dimethyl sulfoxide were diluted to concentrations of 10 μg/ml for compound 3 and […] for compound 9 in minimum essential medium used for the culture of human embryonic lung fibroblasts. […] Cell cultures in 24-well plates were innoculated with P. carinii trophozoites (final concentration, about 7×10^5 per ml) obtained from infected rat lungs. Each culture plate contained untreated and treated wells. Plates were incubated at 35° C. in a gas mixture of 5% O2, 10% CO2, 85% N2 for up to 7 days. Plates were sampled on days 1, 3, 5 and 7 by removal of 10 μl amounts after agitation of the cultures. The samples were placed on slides in 1-cm^2 areas, fixed in methanol and stained with Giemsa stain; and then they were examined microscopically as unknowns by two individuals. For each parameter there were four wells, making eight values for each parameter. Standard errors range from 3-13%. Cultures were spiked with fresh drugs on days 2, 4 and 6.

T. cruzi [2] = assay: Inhibition of T. cruzi in infected cells, cell line J774; type: cell-based; settings: days before cell monolayer is destroyed by infection; 20 μM, daily change of medium plus inhibitor
Protocol: (§1) Survival time is measured in days before the cell monolayer is destroyed by the infection. Irradiated BHK and J774 cells (six well plates) were infected with T. cruzi and simultaneously treated with 20 μM (3 ml total volume) with daily change of culture medium+plus inhibitor).
(§2) Cultivation and preparation of T. cruzi. Cloned and uncloned populations were derived from the strains Brasil, and CA-I and are cryopreserved in liquid nitrogen. Axenically cultured epimastigotes are maintained in exponential growth phase by weekly passage in Brain Heart Infusion-Tryptose medium (BHT media as given in Cazzulo, Cazzulo, Martinez, and Cazzulo, Some Kinetic Properties of a Cysteine Proteinase (Cruzipain) from Trypanosoma Cruzi. 33 Mol. Biochem. Parasitol. 33-42 (1990)), supplemented with […] 10% (v/v) heat inactivated fetal calf serum (FCS). Different host cell lines (J774 mouse macrophage, BHK, etc.) are cultured with RPMI-1640 supplemented with 5% FCS at 37° in a humidified atmosphere containing 5% CO2. Trypomastigotes liberated from the host cells are used to infect new cultures for serial maintenance of the parasite in cell culture. The protocols used for the in vitro assays of cysteine protease inhibitors are essentially as described by Harth, Andrews, Mills, Engel, Smith, and McKerrow, Peptide-Fluoromethyl Ketones Arrest Intracellular Replication and Intercellular Transmission of Trypanosoma Cruzi. 58 Mol. Biochem. Parasitol. 17-24 (1993), with the exception that in some experiments, the host cells are irradiated (2400 RADs) before infection to prevent them from dividing.

T. cruzi [3] = assay: Inhibition of T. cruzi in infected cells, cell line BHK; type: cell-based; settings: days before cell monolayer is destroyed by infection; 20 μM, daily change of medium plus inhibitor
Protocol: as §1, §2

[4] = not given; remark: listed apart in the source
[5] = inhibitors with other heterocycles, read-out: IC5 Cathepsin B Inhibition
[6] = purified cathepsin B, read-out: IC50 Cat B

Row | Molecule | IC50 [1, 5] [nM] | IC50 [1, 6] [nM] | further results
1 | CCC1OC(=O)C(OCC(=O)C(CCc2ccccc2)NC(=O)C(Cc2ccccc2)NC(=O)N2CCOCC2)=C1C (stereo not drawn) | 229 |  | 
2 | Cc1ccc2cccc(OCC(=O)[C@H](CCc3ccccc3)NC(=O)[C@H](Cc3ccccc3)NC(=O)N3CCOCC3)c2n1 | 219 |  | 
3 | Cc1cc(OCC(=O)[C@H](CCc2ccccc2)NC(=O)[C@H](Cc2ccccc2)NC(=O)N2CCOCC2)nc2ccccc12 | 282 |  | 
4 | O=C(COc1ncnc2ccccc12)[C@H](CCc1ccccc1)NC(=O)[C@H](Cc1ccccc1)NC(=O)N1CCOCC1 | 1800 |  | 
5 | O=C(COc1nc2ccccc2[nH]1)[C@H](CCc1ccccc1)NC(=O)[C@H](Cc1ccccc1)NC(=O)N1CCOCC1 | 569 |  | 
6 | O=C(COc1nccc2ccccc12)[C@H](CCc1ccccc1)NC(=O)[C@H](Cc1ccccc1)NC(=O)N1CCOCC1 | 457 |  | 
7 | Cc1cc(=O)oc2cc(OCC(=O)[C@H](CCc3ccccc3)NC(=O)[C@H](Cc3ccccc3)NC(=O)N3CCOCC3)ccc12 | 4500 |  | 
8 | O=C(COc1ccc2ccc(=O)oc2c1)[C@H](CCc1ccccc1)NC(=O)[C@H](Cc1ccccc1)NC(=O)N1CCOCC1 | 4500 |  | 
9 | O=C(COc1cc2ccccc2o1)[C@H](CCc1ccccc1)NC(=O)[C@H](Cc1ccccc1)NC(=O)N1CCOCC1 | 252 |  | 
10 | Cc1occc(=O)c1OCC(=O)[C@H](CCc1ccccc1)NC(=O)[C@H](Cc1ccccc1)NC(=O)N1CCOCC1 | 385 |  | 
11 | O=C(COc1nc2ccccc2s1)[C@H](CCc1ccccc1)NC(=O)[C@H](Cc1ccccc1)NC(=O)N1CCOCC1 | 21000 |  | 
12 | O=C(COc1cccs1)[C@H](CCc1ccccc1)NC(=O)[C@H](Cc1ccccc1)NC(=O)N1CCOCC1 | 79000 |  | 
13 | CCOC(=O)c1c(C)noc1OCC(=O)[C@H](CCc1ccccc1)NC(=O)[C@H](Cc1ccccc1)NC(=O)N1CCOCC1 | 2190 |  | 
14 | C[n+]1ccc2ccccc2c1OCC(=O)[C@H](CCc1ccccc1)NC(=O)[C@H](Cc1ccccc1)NC(=O)N1CCOCC1 | 5600 |  | 
15 | O=C1CC(=O)C(c2ccccc2)=C1OCC(=O)[C@H](CCc1ccccc1)NC(=O)[C@H](Cc1ccccc1)NC(=O)N1CCOCC1 [Compound 1, N-Morpholinecarbonyl-L-phenylalanyl-L-homophenylalanine-α-(4-oxy-5-phenyl-4-cyclopentene-1,3-dione) methyl ketone] |  | 94 | 
16 | O=C1OC(C(O)CO)C(OCC(=O)C(CCc2ccccc2)NC(=O)C(Cc2ccccc2)NC(=O)N2CCOCC2)=C1O [Compound 2, N-Morpholinecarbonyl-L-phenylalanyl-L-homophenylalanyl-α-(4-ascorbityl) methyl ketone] |  | 141 | 
17 | Cc1cc(OCC(=O)[C@H](CCc2ccccc2)NC(=O)[C@H](Cc2ccccc2)NC(=O)N2CCOCC2)cc(=O)o1 [Compound 3, N-Morpholinecarbonyl-L-phenylalanyl-L-homophenylalanyl-α-(4-oxy-6-methyl-2-pyrone) methyl ketone] |  | 112 | inhibition at 10 µg/mL (Pneumocystis carinii; 24 h, Day 1, 10 μg/ml for compound 3, 10 μM/ml for compound 9, read-out: Percent Inhibition, Day 1): 23%; inhibition at 10 µg/mL (Pneumocystis carinii; 48 h, Day 2, 10 μg/ml for compound 3, 10 μM/ml for compound 9, read-out: Percent Inhibition, Day 2): 44%; inhibition at 10 µg/mL (Pneumocystis carinii; 72 h, Day 3, 10 μg/ml for compound 3, 10 μM/ml for compound 9, read-out: Percent Inhibition, Day 3): 39%; inhibition at 10 µg/mL (Pneumocystis carinii; 96 h, Day 4, 10 μg/ml for compound 3, 10 μM/ml for compound 9, read-out: Percent Inhibition, Day 4): 13%
18 | CC1CC(OCC(=O)C(CCc2ccccc2)NC(=O)C(Cc2ccccc2)NC(=O)N2CCOCC2)=CC(=O)O1 [Compound 4, N-Morpholinecarbonyl-L-phenylalanyl-L-homophenylalanyl-α-(4-oxy-5,6-dihydro-6-methyl-2H-pyran-2-one) methyl ketone] |  | 567 | melting point: 74 to 78 °C
19 | Cc1cc(OCC(=O)[C@H](CCc2ccccc2)NC(=O)[C@H](CC(C)C)NC(=O)N2CCOCC2)cc(=O)o1 [Compound 5] |  | 400 | melting point: 70 to 75 °C
20 | O=C(COc1cc(=O)oc2ccccc12)[C@H](CCc1ccccc1)NC(=O)[C@H](Cc1ccccc1)NC(=O)N1CCOCC1 [Compound 6, N-Morpholinecarbonyl-L-phenylalanyl-L-homophenylalanyl-α-(4-oxy-coumarin) methyl ketone] |  | 45 | Survival Time, Cell line J774 (T. cruzi [2]): ≥ 16 days; Survival Time, Cell line BHK (T. cruzi [3]): ≥ 16 days; melting point: 115 to 119 °C
21 | Cc1cc(OCC(=O)[C@H](CCCCN)NC(=O)[C@H](Cc2ccccc2)NC(=O)N2CCOCC2)cc(=O)o1 [Compound 7] |  | 25 | melting point: 151 to 155 °C
22 | COc1ccc(C[C@H](NC(=O)N2CCOCC2)C(=O)N[C@@H](CCCCN)C(=O)COc2cc(C)oc(=O)c2)cc1 [Compound 8] |  | 83 | melting point: 140 to 142 °C
23 | O=C1OCC(OCC(=O)[C@H](CCc2ccccc2)NC(=O)[C@H](Cc2ccccc2)NC(=O)N2CCOCC2)=C1c1ccccc1 [Compound 9, N-Morpholinecarbonyl-L-phenylalanyl-L-homophenylalanyl-α-(4-oxy-3-phenyl-dihydrofuran-2-one) methyl ketone] |  | 36 | Survival Time, Cell line J774 (T. cruzi [2]): 4 days; Survival Time, Cell line BHK (T. cruzi [3]): 6 days; melting point: 114 to 116 °C
24 | COc1ccc(C[C@H](NC(=O)N2CCOCC2)C(=O)N[C@@H](CCCCN)C(=O)COC2=C(c3ccccc3)C(=O)OC2)cc1 [Compound 10, N-Morpholinecarbonyl-L-tryosyl (O-methyl)-L-lysyl-(4-oxy-3-phenyl-dihydrofuran-2-one) methyl ketone] |  | 8 | melting point: 140 to 142 °C
25 | NCCCC[C@H](NC(=O)[C@H](Cc1ccccc1)NC(=O)N1CCOCC1)C(=O)COC1=C(c2ccccc2)C(=O)OC1 [Compound 11, N-Morpholinecarbonyl-L-phenylalanyl-L-lysyl-α-(4-oxy-3-phenyl-dihydrofuran-2-one) methyl ketone] |  | 5 | melting point: 140 to 145 °C
26 | O=C(N[C@@H](CCc1ccccc1)C(=O)CF)C(Cc1ccccc1)NC(=O)N1CCOCC1 (stereo partly drawn) [Mu—Phe—HPhe—CH2F, Morpholine-carbonyl-phenylalanyl-homophenylalanyl-fluoromethylketone, reference compound] ({Morpholide-CO}-[ξF]-[hPhe]-CH2F) |  |  | Survival Time, Cell line J774 (T. cruzi [2]): ≥ 16 days; Survival Time, Cell line BHK (T. cruzi [3]): ≥ 16 days; aqueous solubility ([4]; 20° C., distilled and deionized water): 0.140 mg/mL (≈ 307 µM)
27 | benzoxycarbonyl-phenylalanyl-alanylfluoromethyl ketone [Z—Phe—Ala—CH2F] |  |  | aqueous solubility ([4]; 14° C.): 0.045 mg/mL
